Consider 34 molecules from patent US20090054392A1, “NAPHTHYLPYRIMIDINE, NAPHTHYLPYRAZINE AND NAPHTHYLPYRIDAZINE ANALOGS AND THEIR USE AS AGONISTS OF THE WNT-BETA-CATENIN CELLULAR MESSAGING SYSTEM” (Wyeth, priority 2007, published 2009).

Broadly, the EC50 is the concentration needed to bring the measured effect to its halfway point. Low readings indicate an effect from little substance, high ones a need for much substance.

This series relates to Dkk1-LRP5-TCF-Luciferase. In words: Functional Dkk1-LRP5-TCF-Luciferase Assay in U2OS Cells. Conditions: for fold induction at 2 µM / fold induction at 20 µM / EC50: Homo sapiens, U2OS; for fold induction at 2 µM: read-out: B = TCF ACTIVITY/DMSO CONTROL Fold induction @ 2.0 uM, 2.0 uM compound; for fold induction at 20 µM: read-out: C = TCF ACTIVITY/DMSO CONTROL Fold induction @ 20.0 uM, 20.0 uM compound; for A = MAX FOLD Induction/DMSO CONTROL: maximum fold induction over DMSO control.

As for `CN(C)C(=O)NCCC1CCN(c2nccc(-c3ccc4ccccc4c3)n2)CC1` [N,N-dimethyl-N′-(2-{1-[4-(2-naphthyl)pyrimidin-2-yl]piperidin-4-yl}ethyl)urea], the fold induction at 2 µM turned out to be 1.48 and the fold induction at 20 µM came to 0.18.
Take `CN(C)C(=O)NCCN1CCN(c2nccc(-c3ccc4ccccc4c3)n2)CC1` [N,N-dimethyl-N′-(2-{4-[4-(2-naphthyl)pyrimidin-2-yl]piperazin-1-yl}ethyl)urea]: the fold induction at 2 µM turned out to be 1.98.
Regarding `CN(C)S(=O)(=O)N[C@H]1CC[C@H](Nc2nccc(-c3ccc4ccccc4c3)n2)CC1` [N,N-dimethyl-N′-(trans-4-{[4-(2-naphthyl)pyrimidin-2-yl]amino}cyclohexyl)sulfamide], the fold induction at 2 µM was found to be 1.65 and the fold induction at 20 µM came out at 1.74.
Regarding `CN(C)C(=O)N[C@H]1CC[C@H](Nc2nccc(-c3ccc4ccccc4c3)n2)CC1` [N,N-dimethyl-N′-(trans-4-{[4-(2-naphthyl)pyrimidin-2-yl]amino}cyclohexyl)urea], the fold induction at 2 µM is 2.78, the fold induction at 20 µM turned out to be 1.61 and the “A = MAX FOLD Induction/DMSO CONTROL” value stood at 2.270 fold.
For `CN(C)C(=O)NCC1CN(c2nccc(-c3ccc4ccccc4c3)n2)C1` [N,N-dimethyl-N′-({1-[4-(2-naphthyl)pyrimidin-2-yl]azetidin-3-yl}methyl)urea], the fold induction at 2 µM amounted to 0.99 and the fold induction at 20 µM was found to be 1.43.
The matching figures for `CN(C)S(=O)(=O)NCC1CCN(c2nccc(-c3ccc4ccccc4c3)n2)CC1` [N,N-dimethyl-N′-({1-[4-(2-naphthyl)pyrimidin-2-yl]piperidin-4-yl}methyl)sulfamide]: 1.05 and 1.11.
With `CN(C)C(=O)NCC1CCN(c2nccc(-c3ccc4ccccc4c3)n2)CC1` [N,N-dimethyl-N′-({1-[4-(2-naphthyl)pyrimidin-2-yl]piperidin-4-yl}methyl)urea], the EC50 turned out to be 4.03 µM, the fold induction at 2 µM came out at 1.12, the fold induction at 20 µM was 2.36 and the “A = MAX FOLD Induction/DMSO CONTROL” value is 1.690 fold.
On to `CN(C)S(=O)(=O)NCC1CCN(c2nccc(-c3ccc4ccccc4c3)n2)C1` (stereo not drawn) [N,N-dimethyl-N′-({1-[4-(2-naphthyl)pyrimidin-2-yl]pyrrolidin-3-yl}methyl)sulfamide], for which the fold induction at 2 µM is 0.99 and the fold induction at 20 µM turned out to be 1.2.
For `CN(C)C(=O)NCC1CCN(c2nccc(-c3ccc4ccccc4c3)n2)C1` (stereo not drawn) [N,N-dimethyl-N′-({1-[4-(2-naphthyl)pyrimidin-2-yl]pyrrolidin-3-yl}methyl)urea] the same measures were 0.84 and 1.15.
For `CN(C)S(=O)(=O)NC1CCCN(c2nccc(-c3ccc4ccccc4c3)n2)CC1` (stereo not drawn) [N,N-dimethyl-N′-{1-[4-(2-naphthyl)pyrimidin-2-yl]azepan-4-yl}sulfamide] the same measures were 1.12 and 1.01.
Consider `CN(C)C(=O)NC1CCCN(c2nccc(-c3ccc4ccccc4c3)n2)CC1` (stereo not drawn) [N,N-dimethyl-N′-{1-[4-(2-naphthyl)pyrimidin-2-yl]azepan-4-yl}urea], for which the fold induction at 2 µM stood at 1.74 and the fold induction at 20 µM came to 1.75.
Take `CN(C)CCN[C@@H]1CCN(c2nccc(-c3ccc4ccccc4c3)n2)C1` [N,N-dimethyl-N′-{(3R)-1-[4-(2-naphthyl)pyrimidin-2-yl]pyrrolidin-3-yl}ethane-1,2-diamine]: the fold induction at 2 µM stood at 2.5.
Take `CN(C)S(=O)(=O)N[C@@H]1CCN(c2nccc(-c3ccc4ccccc4c3)n2)C1` [N,N-dimethyl-N′-{(3R)-1-[4-(2-naphthyl)pyrimidin-2-yl]pyrrolidin-3-yl}sulfamide]: the fold induction at 2 µM was determined as 1.42 and the fold induction at 20 µM came out at 0.82.
The matching figures for `CN(C)C(=O)N[C@@H]1CCN(c2nccc(-c3ccc4ccccc4c3)n2)C1` [N,N-dimethyl-N′-{(3R)-1-[4-(2-naphthyl)pyrimidin-2-yl]pyrrolidin-3-yl}urea]: 1.79 and 0.26.
For `CN(C)CCN[C@H]1CCN(c2nccc(-c3ccc4ccccc4c3)n2)C1` [N,N-dimethyl-N′-{(3S)-1-[4-(2-naphthyl)pyrimidin-2-yl]pyrrolidin-3-yl}ethane-1,2-diamine], the fold induction at 2 µM is 1.5.
On the same count and under the same terms, to `CN(C)S(=O)(=O)N[C@H]1CCN(c2nccc(-c3ccc4ccccc4c3)n2)C1` [N,N-dimethyl-N′-{(3S)-1-[4-(2-naphthyl)pyrimidin-2-yl]pyrrolidin-3-yl}sulfamide] belongs 1.87.
`CN(C)C(=O)N[C@H]1CCN(c2nccc(-c3ccc4ccccc4c3)n2)C1` [N,N-dimethyl-N′-{(3S)-1-[4-(2-naphthyl)pyrimidin-2-yl]pyrrolidin-3-yl}urea]: the fold induction at 2 µM was determined as 0.94 and the fold induction at 20 µM was 1.65.
As for `CCCN(C)CCN(C)[C@@H]1CCN(c2nccc(-c3ccc4ccccc4c3)n2)C1` [N,N′-dimethyl-N-{(3R)-1-[4-(2-naphthyl)pyrimidin-2-yl]pyrrolidin-3-yl}-N′-propylethane-1,2-diamine], the fold induction at 2 µM came out at 3.4.
On the same count and under the same terms, to `CNCCN(C)[C@@H]1CCN(c2nccc(-c3ccc4ccccc4c3)n2)C1` [N,N′-dimethyl-N-{(3R)-1-[4-(2-naphthyl)pyrimidin-2-yl]pyrrolidin-3-yl}ethane-1,2-diamine] belongs 1.2.
As for `CC(=O)N1CCC(Nc2nccc(-c3ccc4ccccc4c3)n2)CC1` [N-(1-acetylpiperidin-4-yl)-4-(2-naphthyl)pyrimidin-2-amine], the response was half-maximal at 5.5 µM (EC50), the fold induction at 2 µM was 1.09, the fold induction at 20 µM was determined as 2.53 and the “A = MAX FOLD Induction/DMSO CONTROL” value worked out at 2.428 fold.
Consider `CC(=O)N1CCC(N(C)c2nccc(-c3ccc4ccccc4c3)n2)CC1` [N-(1-acetylpiperidin-4-yl)-N-methyl-4-(2-naphthyl)pyrimidin-2-amine], for which the fold induction at 2 µM stood at 1.37, the fold induction at 20 µM came out at 0.37 and the “A = MAX FOLD Induction/DMSO CONTROL” value is on record as 1.650 fold.
Take `O=C(c1ccccc1)N1CCC(Nc2nccc(-c3ccc4ccccc4c3)n2)CC1` [N-(1-benzoylpiperidin-4-yl)-4-(2-naphthyl)pyrimidin-2-amine]: the fold induction at 2 µM was 1.95, the fold induction at 20 µM is 0.01 and the “A = MAX FOLD Induction/DMSO CONTROL” value is recorded as 1.490 fold.
With `CN(c1nccc(-c2ccc3ccccc3c2)n1)C1CCN(C(=O)c2ccccc2)CC1` [N-(1-benzoylpiperidin-4-yl)-N-methyl-4-(2-naphthyl)pyrimidin-2-amine], the fold induction at 2 µM was 1.85.
`CN(c1nccc(-c2ccc3ccccc3c2)n1)C1CCN(Cc2ccccc2)CC1` [N-(1-benzylpiperidin-4-yl)-N-methyl-4-(2-naphthyl)pyrimidin-2-amine]: the fold induction at 2 µM was found to be 1.55 and the fold induction at 20 µM came out at 1.24.
On to `c1ccc2cc(-c3ccnc(NCCN4CCOCC4)n3)ccc2c1` [N-(2-morpholin-4-ylethyl)-4-(2-naphthyl)pyrimidin-2-amine], for which the EC50 worked out at 5.7 µM, the fold induction at 2 µM turned out to be 2.11, the fold induction at 20 µM is 2.44 and the “A = MAX FOLD Induction/DMSO CONTROL” value is 1.853 fold.
Turning to `O=C(NCCC1CCN(c2nccc(-c3ccc4ccccc4c3)n2)CC1)Nc1ccccc1` [N-(2-{1-[4-(2-naphthyl)pyrimidin-2-yl]piperidin-4-yl}ethyl)-N′-phenylurea], the fold induction at 2 µM worked out at 1 and the fold induction at 20 µM was determined as 1.5.
Take `CC(=O)NCCC1CCN(c2nccc(-c3ccc4ccccc4c3)n2)CC1` [N-(2-{1-[4-(2-naphthyl)pyrimidin-2-yl]piperidin-4-yl}ethyl)acetamide]: the fold induction at 2 µM came out at 2.27, the fold induction at 20 µM amounted to 1 and the “A = MAX FOLD Induction/DMSO CONTROL” value is 1.360 fold.
Consider `O=C(NCCC1CCN(c2nccc(-c3ccc4ccccc4c3)n2)CC1)c1ccccc1` [N-(2-{1-[4-(2-naphthyl)pyrimidin-2-yl]piperidin-4-yl}ethyl)benzamide], for which the fold induction at 2 µM worked out at 0.91 and the fold induction at 20 µM came to 1.95.
Turning to `CS(=O)(=O)NCCC1CCN(c2nccc(-c3ccc4ccccc4c3)n2)CC1` [N-(2-{1-[4-(2-naphthyl)pyrimidin-2-yl]piperidin-4-yl}ethyl)methanesulfonamide], the “A = MAX FOLD Induction/DMSO CONTROL” value amounted to 0.880 fold.
Still for that read-out and setting: to `NC(=O)NCCC1CCN(c2nccc(-c3ccc4ccccc4c3)n2)CC1` [N-(2-{1-[4-(2-naphthyl)pyrimidin-2-yl]piperidin-4-yl}ethyl)urea] belongs 1.112 fold.
Regarding `N=C(N)OC(=N)NCCN1CCN(c2nccc(-c3ccc4ccccc4c3)n2)CC1` [N-(2-{4-[4-(2-naphthyl)pyrimidin-2-yl]piperazin-1-yl}ethyl)dicarbonimidic diamide], the fold induction at 2 µM stood at 1.22 and the fold induction at 20 µM was found to be 0.49.
Consider `CS(=O)(=O)NCCN1CCN(c2nccc(-c3ccc4ccccc4c3)n2)CC1` [N-(2-{4-[4-(2-naphthyl)pyrimidin-2-yl]piperazin-1-yl}ethyl)methanesulfonamide], for which the response was half-maximal at 5.4 µM (EC50), the fold induction at 2 µM is 1.31, the fold induction at 20 µM turned out to be 1.93 and the “A = MAX FOLD Induction/DMSO CONTROL” value turned out to be 1.700 fold.
Turning to `c1ccc2cc(-c3ccnc(NCCCN4CCOCC4)n3)ccc2c1` [N-(3-morpholin-4-ylpropyl)-4-(2-naphthyl)pyrimidin-2-amine], the concentration giving a half-maximal response (EC50) is 23.8 µM, the fold induction at 2 µM is 1.68, the fold induction at 20 µM stood at 3.27 and the “A = MAX FOLD Induction/DMSO CONTROL” value is on record as 2.120 fold.
Regarding `COc1ccc(CNc2nccc(-c3ccc4ccccc4c3)n2)cc1` [N-(4-methoxybenzyl)-4-(2-naphthyl)pyrimidin-2-amine], the fold induction at 20 µM came to 1.12.
